# The source made the active and inactive calls. The rule behind the calls is not given here.
# How the values were obtained:
# [1] = molecular target: DNA topoisomerase 2-alpha (Homo sapiens, UniProt P11388); test: Inhibition of Homo sapiens (human) topoisomerase 2 assessed as decatenation of KDNA by agarose gel electrophoresis
# KB [2] = test: Cytotoxicity against Homo sapiens (human) KB cells by neutral red staining; type: functional, cell-based
# SK-MEL [3] = test: Cytotoxicity against Homo sapiens (human) SK-MEL cells by neutral red staining; type: functional, cell-based
# LLC-PK1 [4] = test: Cytotoxicity against Sus scrofa (pig) LLC-PK1 cells by neutral red staining; type: cell-based
# BT-549 [5] = test: Cytotoxicity against Homo sapiens (human) BT549 cells by neutral red staining; type: functional, cell-based
# [6] = molecular target: T1, DNA topoisomerase 1 (Homo sapiens) (UniProt P11387); test: Inhibition of Homo sapiens (human) topoisomerase 1 assessed as production of nicked DNA up to 25 uM by agarose gel electrophoresis
# T1 sequence (whole entry): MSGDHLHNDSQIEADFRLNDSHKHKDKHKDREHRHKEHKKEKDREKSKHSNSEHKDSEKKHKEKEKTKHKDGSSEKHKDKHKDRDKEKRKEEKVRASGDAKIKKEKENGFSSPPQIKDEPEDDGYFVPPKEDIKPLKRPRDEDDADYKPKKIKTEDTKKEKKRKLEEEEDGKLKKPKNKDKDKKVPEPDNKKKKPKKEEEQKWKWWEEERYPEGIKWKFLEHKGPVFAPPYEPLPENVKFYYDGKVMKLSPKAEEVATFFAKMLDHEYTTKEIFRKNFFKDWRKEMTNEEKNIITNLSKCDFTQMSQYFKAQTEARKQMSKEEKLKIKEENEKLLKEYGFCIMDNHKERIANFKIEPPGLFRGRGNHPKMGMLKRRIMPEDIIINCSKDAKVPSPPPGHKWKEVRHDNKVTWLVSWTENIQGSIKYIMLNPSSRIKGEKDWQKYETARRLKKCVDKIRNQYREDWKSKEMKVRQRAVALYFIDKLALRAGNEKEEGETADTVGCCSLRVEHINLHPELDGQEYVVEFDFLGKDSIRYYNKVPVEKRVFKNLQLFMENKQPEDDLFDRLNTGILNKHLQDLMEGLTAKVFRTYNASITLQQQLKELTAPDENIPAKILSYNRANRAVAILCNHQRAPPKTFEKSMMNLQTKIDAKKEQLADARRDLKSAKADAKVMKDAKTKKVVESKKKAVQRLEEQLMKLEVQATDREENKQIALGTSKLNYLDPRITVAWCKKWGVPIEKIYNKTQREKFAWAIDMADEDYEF
# [7] = molecular target: T1, DNA topoisomerase 1 (Homo sapiens); test: Inhibition of Homo sapiens (human) topoisomerase 1 assessed as relaxation of supercoiled DNA up to 25 uM by agarose gel electrophoresis
# Vero [8] = test: Cytotoxicity against Chlorocebus aethiops (African green monkey) Vero cells by neutral red staining; type: cell-based; conditions: chlorocebus sabaeus
# SK-OV-3 [9] = test: Cytotoxicity against Homo sapiens (human) SKOV3 cells by neutral red staining; type: functional, cell-based
# Vero [10] = test: Cytotoxicity against Chlorocebus aethiops (African green monkey) Vero cells up to 25 uM by neutral red staining; type: cell-based; conditions: chlorocebus sabaeus
# KB [11] = test: Cytotoxicity against Homo sapiens (human) KB cells up to 25 uM by neutral red staining; type: functional, cell-based
# LLC-PK1 [12] = test: Cytotoxicity against Sus scrofa (pig) LLC-PK1 cells up to 25 uM by neutral red staining; type: cell-based
# BT-549 [13] = test: Cytotoxicity against Homo sapiens (human) BT549 cells up to 25 uM by neutral red staining; type: functional, cell-based
# SK-OV-3 [14] = test: Cytotoxicity against Homo sapiens (human) SKOV3 cells up to 25 uM by neutral red staining; type: functional, cell-based
# SK-MEL [15] = test: Cytotoxicity against Homo sapiens (human) SK-MEL cells up to 25 uM by neutral red staining; type: functional, cell-based
# Chain of DNA topoisomerase 2-alpha (P11388 whole entry): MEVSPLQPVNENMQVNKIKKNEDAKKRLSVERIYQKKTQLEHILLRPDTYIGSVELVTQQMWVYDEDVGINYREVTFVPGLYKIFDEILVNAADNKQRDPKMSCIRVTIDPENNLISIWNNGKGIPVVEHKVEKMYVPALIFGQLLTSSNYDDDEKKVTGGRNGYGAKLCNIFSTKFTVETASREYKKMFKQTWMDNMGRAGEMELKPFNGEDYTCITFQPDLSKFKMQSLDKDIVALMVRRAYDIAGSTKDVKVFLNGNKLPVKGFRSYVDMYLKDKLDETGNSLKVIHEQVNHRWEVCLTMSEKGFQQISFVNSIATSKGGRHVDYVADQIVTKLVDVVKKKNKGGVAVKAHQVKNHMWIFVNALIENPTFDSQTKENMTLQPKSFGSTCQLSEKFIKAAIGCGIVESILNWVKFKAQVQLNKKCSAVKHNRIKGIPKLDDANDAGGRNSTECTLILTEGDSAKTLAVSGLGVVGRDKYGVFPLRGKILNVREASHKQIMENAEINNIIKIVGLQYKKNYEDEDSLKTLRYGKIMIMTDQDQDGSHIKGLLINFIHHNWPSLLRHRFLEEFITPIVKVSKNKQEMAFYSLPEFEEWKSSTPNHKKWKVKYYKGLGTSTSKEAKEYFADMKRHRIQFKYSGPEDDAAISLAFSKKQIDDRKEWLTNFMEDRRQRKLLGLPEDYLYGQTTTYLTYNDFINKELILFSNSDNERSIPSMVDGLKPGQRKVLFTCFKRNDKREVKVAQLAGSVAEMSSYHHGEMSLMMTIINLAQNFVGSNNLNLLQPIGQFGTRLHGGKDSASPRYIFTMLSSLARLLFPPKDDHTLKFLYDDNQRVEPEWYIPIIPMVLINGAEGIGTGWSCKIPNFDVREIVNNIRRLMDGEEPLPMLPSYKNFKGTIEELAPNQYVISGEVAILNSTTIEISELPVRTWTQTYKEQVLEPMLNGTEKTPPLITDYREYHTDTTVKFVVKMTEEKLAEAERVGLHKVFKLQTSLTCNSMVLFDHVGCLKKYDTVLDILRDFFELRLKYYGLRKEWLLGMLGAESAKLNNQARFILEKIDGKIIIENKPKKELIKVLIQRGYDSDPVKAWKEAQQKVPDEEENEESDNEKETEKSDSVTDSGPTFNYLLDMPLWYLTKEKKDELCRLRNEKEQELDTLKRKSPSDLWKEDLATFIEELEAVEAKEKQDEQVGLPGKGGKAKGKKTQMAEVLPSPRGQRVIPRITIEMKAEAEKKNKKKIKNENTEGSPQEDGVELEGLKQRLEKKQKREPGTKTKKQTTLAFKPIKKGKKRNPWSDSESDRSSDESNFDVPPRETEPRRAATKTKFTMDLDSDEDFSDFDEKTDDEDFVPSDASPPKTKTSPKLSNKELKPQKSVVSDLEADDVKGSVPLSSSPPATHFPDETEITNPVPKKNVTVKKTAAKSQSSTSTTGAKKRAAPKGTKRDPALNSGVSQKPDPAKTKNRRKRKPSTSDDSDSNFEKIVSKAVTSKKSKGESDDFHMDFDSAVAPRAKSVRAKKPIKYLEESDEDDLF
Compound,IC50 [1] [µM],IC50 (KB [2]) [µM],IC50 (SK-MEL [3]) [µM],IC50 (LLC-PK1 [4]) [µM],IC50 (BT-549 [5]) [µM],inhibition [6],inhibition [7],IC50 (Vero [8]) [µM],IC50 (SK-OV-3 [9]) [µM],Activity (Vero [10]),Activity (KB [11]),Activity (LLC-PK1 [12]),Activity (BT-549 [13]),Activity (SK-OV-3 [14]),Activity (SK-MEL [15])
COc1cc(/C=C/C(=O)CC(=O)/C=C/c2ccc(OC(=O)CNc3ccc(S(N)(=O)=O)cc3)c(OC)c2)ccc1OC(=O)CNc1ccc(S(N)(=O)=O)cc1,3,14,18.8,15.8,10.5,inactive,inactive,11,22.5,,,,,,
COc1cc(/C=C/C(=O)CC(=O)/C=C/c2ccc(OC(=O)CNCCN(C)C)c(OC)c2)ccc1OC(=O)CNCCN(C)C,16,,15,,20,inactive,inactive,,22.5,Non-toxic,inactive,Non-toxic,,,
CCOc1cc(/C=C/C(=O)CC(=O)/C=C/c2ccc(OC(=O)CNc3nc4ccc(OC)cc4s3)c(OCC)c2)ccc1OC(=O)CNc1nc2ccc(OC)cc2s1,12,,4.75,,,inactive,inactive,,2.8,Non-toxic,inactive,Non-toxic,inactive,,
COc1cc(/C=C/C(=O)CC(=O)/C=C/c2ccc(OC(=O)CN(CCCl)CCCl)c(OC)c2)ccc1OC(=O)CN(CCCl)CCCl,5,19.5,7,20,6.75,inactive,inactive,> 25,,,,,,inactive,
CCOc1cc(/C=C/C(=O)CC(=O)/C=C/c2ccc(OC(=O)CNCCN(C)C)c(OCC)c2)ccc1OC(=O)CNCCN(C)C,4,,,22,11.5,inactive,inactive,,,Non-toxic,inactive,,,inactive,inactive
CCOc1cc(/C=C/C(=O)CC(=O)/C=C/c2ccc(OC(=O)CNCCCl)c(OCC)c2)ccc1OC(=O)CNCCCl,4.1,12.5,13.3,6.8,9,inactive,inactive,11,,,,,,inactive,
CCOc1cc(/C=C/C(=O)CC(=O)/C=C/c2ccc(OC(=O)CN(CCCl)CCCl)c(OCC)c2)ccc1OC(=O)CN(CCCl)CCCl,3.4,21.5,14.5,13.8,11,inactive,inactive,15,13.5,,,,,,
CCN(CC)CCNCC(=O)Oc1ccc(/C=C/C(=O)CC(=O)/C=C/c2ccc(OC(=O)CNCCN(CC)CC)c(OC)c2)cc1OC,3,24,8.5,,16.3,inactive,inactive,19.5,15.5,,,Non-toxic,,,
COc1ccc2nc(NCC(=O)Oc3ccc(/C=C/C(=O)CC(=O)/C=C/c4ccc(OC(=O)CNc5nc6ccc(OC)cc6s5)c(OC)c4)cc3OC)sc2c1,15,23,15,22.5,18.1,inactive,inactive,,,Non-toxic,,,,inactive,
CCOc1cc(/C=C/C(=O)CC(=O)/C=C/c2ccc(OC(=O)CNCCN(CC)CC)c(OCC)c2)ccc1OC(=O)CNCCN(CC)CC,10,11.5,11.5,5.8,10,inactive,inactive,5,14.8,,,,,,
COc1cc(/C=C/C(=O)CC(=O)/C=C/c2ccc(OC(=O)CCNCCCl)c(OC)c2)ccc1OC(=O)CCNCCCl,2.9,11.5,15,16.8,11,inactive,inactive,12.5,23.8,,,,,,
COc1cccc2c1C(=O)c1c(O)c3c(c(O)c1C2=O)C[C@@](O)(C(=O)CO)C[C@@H]3O[C@H]1C[C@H](N)[C@H](O)[C@H](C)O1 [DOXORUBICIN],,< 0.55,0.55,0.75,< 0.55,,,> 5,0.8,,,,,,
COc1cc(/C=C/C(=O)CC(=O)/C=C/c2ccc(OC(=O)CNc3nnc(C)s3)c(OC)c2)ccc1OC(=O)CNc1nnc(C)s1,15,22.5,7.5,22.5,8.75,inactive,inactive,23,,,,,,inactive,
CCOc1cc(/C=C/C(=O)CC(=O)/C=C/c2ccc(OC(=O)CCNCCN(CC)CC)c(OCC)c2)ccc1OC(=O)CCNCCN(CC)CC,7.1,,,,,inactive,inactive,,,Non-toxic,inactive,Non-toxic,inactive,inactive,inactive
COc1cc(/C=C/C(=O)CC(=O)/C=C/c2ccc(OC(=O)CCNc3nnc(C)s3)c(OC)c2)ccc1OC(=O)CCNc1nnc(C)s1,3,16.3,7.5,15.5,4.25,inactive,inactive,15,,,,,,inactive,
COc1cc(/C=C/C(=O)CC(=O)/C=C/c2ccc(OC(=O)c3cccs3)c(OC)c2)ccc1OC(=O)c1cccs1 [DI-O-(2-THIENOYL)CURCUMIN],8,,,,,inactive,inactive,,,Non-toxic,inactive,Non-toxic,inactive,inactive,inactive
